From ChEMBL document CHEMBL3046189, “Synthesis of potent inhibitors of histidinol dehydrogenase” (Bioorg Med Chem Lett, 1996)
pIC50, pKd, pKi: −log10 of the molar value. Calls of active or inactive are those of the source. No cut-off for these calls is given here.

How the values were obtained:
[1] = target: T1, Histidinol dehydrogenase, chloroplastic (Brassica oleracea var. capitata, UniProt P24226); assay: Inhibition of Brassica oleracea (cabbage) histidinol dehydrogenase pre-incubated for 10 min before substrate histidinol addition by spectrophotometry
T1 sequence (P24226 whole entry): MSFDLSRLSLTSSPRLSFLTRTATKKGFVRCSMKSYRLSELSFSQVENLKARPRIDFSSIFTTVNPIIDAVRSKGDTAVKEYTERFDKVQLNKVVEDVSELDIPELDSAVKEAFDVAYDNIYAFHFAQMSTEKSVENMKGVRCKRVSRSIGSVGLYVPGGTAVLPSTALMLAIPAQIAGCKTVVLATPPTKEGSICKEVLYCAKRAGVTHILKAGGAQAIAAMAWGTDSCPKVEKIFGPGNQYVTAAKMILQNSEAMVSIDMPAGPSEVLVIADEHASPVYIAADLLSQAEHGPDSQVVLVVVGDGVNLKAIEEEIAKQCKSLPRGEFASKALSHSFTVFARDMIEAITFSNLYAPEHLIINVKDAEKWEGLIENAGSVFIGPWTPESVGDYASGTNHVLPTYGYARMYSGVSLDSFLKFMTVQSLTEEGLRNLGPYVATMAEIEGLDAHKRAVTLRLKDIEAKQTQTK

[2] = target: T2, Histidinol dehydrogenase, chloroplastic (Brassica oleracea var. capitata) (UniProt P24226); assay: Ratio of histidinol IC50 to compound IC50 for Brassica oleracea (cabbage) histidinol dehydrogenase
T2 sequence (whole entry): T1 sequence (P24226 whole entry)

[3] = Ratio of IC50 for Escherichia coli histidinol dehydrogenase to IC50 for cabbage histidinol dehydrogenase
Histidinol dehydrogenase [4] = target: T3, Histidinol dehydrogenase (Escherichia coli (strain K12), UniProt P06988); assay: Inhibition of Escherichia coli histidinol dehydrogenase preincubated for 10 min before substrate histidinol addition by spectrophotometry
T3 sequence (P06988 whole entry): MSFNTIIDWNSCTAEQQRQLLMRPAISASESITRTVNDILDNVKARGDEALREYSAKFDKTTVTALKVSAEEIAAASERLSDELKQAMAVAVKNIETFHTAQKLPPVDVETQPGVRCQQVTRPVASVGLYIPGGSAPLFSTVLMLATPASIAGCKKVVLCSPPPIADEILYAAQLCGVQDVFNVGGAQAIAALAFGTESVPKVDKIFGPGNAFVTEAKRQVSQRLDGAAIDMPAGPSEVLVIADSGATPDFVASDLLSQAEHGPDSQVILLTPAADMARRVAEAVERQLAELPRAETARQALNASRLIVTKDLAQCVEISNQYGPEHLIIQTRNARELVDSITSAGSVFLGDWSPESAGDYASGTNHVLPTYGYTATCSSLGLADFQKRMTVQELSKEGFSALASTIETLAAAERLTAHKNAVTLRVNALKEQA

Oryza sativa [5] = assay: Inhibition of root growth in Oryza sativa (rice) seedlings grown in agar containing basal salts; type: functional, organism-based
Oryza sativa [6] = assay: Inhibition of root growth in Oryza sativa (rice) seedlings grown in agar containing basal salts in presence of histidine; type: functional, organism-based
Histidinol dehydrogenase [7] = target: T3, Histidinol dehydrogenase; assay: Binding affinity to Escherichia coli histidinol dehydrogenase

Work on `N[C@@H](Cc1c[nH]cn1)C(=O)Cc1ccc(-c2ccccc2)cc1` yielded a pIC50 [1] of 7.40, a pKi [1] of 8.54 and a Ratio IC50 [2] greater than 1000.

In the case of `Nc1ccc(CC(=O)[C@@H](N)Cc2c[nH]cn2)cc1`, the pIC50 [1] was 6.30.

`Nc1cc(CC(=O)[C@@H](N)Cc2c[nH]cn2)ccc1Br` showed a pIC50 [1] of 5.10.

With `N[C@@H](Cc1c[nH]cn1)C(=O)Cc1ccccc1` the pIC50 [1] was 7.00, the pKi [1] was 8.12 and the Ratio IC50 [3] was 10. It also gave a pIC50 (Histidinol dehydrogenase [4]) of 6.00.

With `N[C@@H](Cc1c[nH]cn1)C(=O)Cc1ccc(Br)cc1` the “growth inhibition (GI)” value (Oryza sativa [5]) was “Active”, the pIC50 [1] was 7.40 and the pKi [1] was 8.36. The Ratio IC50 [2] was greater than 1000.

`N[C@@H](Cc1c[nH]cn1)C(=O)CCc1ccccc1` showed a pIC50 (Histidinol dehydrogenase [4]) of 4.00.

In the case of `N[C@@H](Cc1c[nH]cn1)C(=O)Cc1ccc(Cl)cc1`, the pIC50 [1] was 6.52.

With `N[C@@H](Cc1c[nH]cn1)C(=O)Cc1ccccc1Br` the pIC50 [1] was 6.00.

`N[C@@H](Cc1c[nH]cn1)C(=O)c1ccccc1` showed a pIC50 (Histidinol dehydrogenase [4]) of less than 4.00.

Compound `COc1ccc(CC(=O)[C@@H](N)Cc2c[nH]cn2)cc1` has a pIC50 [1] of 6.00.

With `N[C@@H](Cc1c[nH]cn1)C(=O)Cc1cccc(Br)c1` the pIC50 [1] was 7.00.

In the case of `N[C@@H](Cc1c[nH]cn1)C(=O)Cc1ccc(Br)c(Br)c1`, the pIC50 [1] was 7.30.

With `N[C@@H](Cc1c[nH]cn1)C(=O)Cc1cccc(O)c1` the pIC50 [1] was 6.52.

For `Nc1cccc(CC(=O)[C@@H](N)Cc2c[nH]cn2)c1`, the “growth inhibition (GI)” value (Oryza sativa [5]) was “Active”, the “growth inhibition (GI)” value (Oryza sativa [6]) was “inactive” and the pIC50 [1] was 7.30. It also gave a pKi [1] of 8.13.

Work on `CC(=O)C(N)Cc1c[nH]cn1` (stereo unspecified) yielded a pIC50 (Histidinol dehydrogenase [4]) of 5.00 and a pKi (Histidinol dehydrogenase [4]) of 5.30.

`N[C@@H](Cc1c[nH]cn1)C(=O)C(F)(F)C(F)(F)F` showed a pIC50 (Histidinol dehydrogenase [4]) of 4.70.

`N[C@H](C=O)Cc1c[nH]cn1` [L-HISTIDINAL] showed a pKd (Histidinol dehydrogenase [7]) of 8.85.

With `N[C@@H](Cc1c[nH]cn1)C(=O)CCCc1ccccc1` the pIC50 (Histidinol dehydrogenase [4]) was 4.10.

Compound `CCC(=O)C(N)Cc1c[nH]cn1` (stereo unspecified) has a pIC50 (Histidinol dehydrogenase [4]) of less than 4.00.
